From EP1066315B1 (University of Dundee, priority 1998, dated 2008)
“Also recorded” adds a separate entry of the source. One block for each compound: values may come before it.

What was measured:
[1] = biological target: T1, disrupted lysosomes isolated from the human B cell line EDR (TTCF processing activity) (Homo sapiens, UniProt Q99538); assay: Digestion of TTCF by disrupted B cell lysosomes, SDS-PAGE readout; assay type: biochemical; conditions: for inhibition of lysosomal digestion of TTCF: inhibitor at 0.1 mg/ml, pH 4.5, 4 hours at 37°C, Fig 1a
T1 construct: disrupted lysosomes isolated from the human B cell line EDR; endogenous in cells; host or cells: human B cell line EDR, Percoll-gradient lysosomal fraction, disrupted
T1 sequence (Q99538 26-323 limits assumed): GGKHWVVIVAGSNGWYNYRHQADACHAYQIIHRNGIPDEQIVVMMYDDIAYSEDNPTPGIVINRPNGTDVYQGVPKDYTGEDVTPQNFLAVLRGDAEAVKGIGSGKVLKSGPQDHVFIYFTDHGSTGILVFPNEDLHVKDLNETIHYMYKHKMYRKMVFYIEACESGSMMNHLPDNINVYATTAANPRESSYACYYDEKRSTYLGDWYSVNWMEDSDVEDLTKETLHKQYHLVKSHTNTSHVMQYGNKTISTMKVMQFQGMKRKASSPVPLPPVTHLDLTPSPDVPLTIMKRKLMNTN
Method: The invention will now be described by reference to the following Examples and Figures wherein • Figure 1: Processing of TTCF by a leupeptin-insensitive cysteine endopeptidase activity. (a) TTCF was digested in vitro in the presence of disrupted lysosomes (1-2 µg) in the presence or absence of iodoacetamide (1 mM), leupeptin, E64 or pepstatin (each at 0.1 mg/ml). Digestions were in 0.1 M NH4 acetate at pH 4.5 or Na2HPO4, pH 6.0 or 7.0. After 4 hours at 37°C, the reactions were separated by Tris-tricine SDS-PAGE and stained with Coomassie Blue. (b) Cleavage sites: TTCF digestion products were separated by SDS PAGE and electrophoretically transferred to nitrocellulose membrane. Individual fragments numbered 1-6 were subjected to 5 cycles of Edman degradation. N-terminal sequence obtained is shown in bold following upstream residues from TTCF (tetanus toxin numbering). The N-terminal sequence of His-tagged TTCF was obtained for fragments 1 and 3. (c) Residues Asn 1184 and Glu 1184 in TTCF were mutated to alanine (see Methods) and digestions performed as before. The mutation abolishes cleavage at the mutated site but not at the first site (doublet at 47 kD). In this experiment cleavage of the third site was minimal. • Figure 2: TTCF is processed by an asparaginyl endopeptidase. (a) Chromatography of the TTCF processing activity on Mono-S resin. Fractions eluted by NaCl gradient were incubated with the substrates Z-Ala-Ala-Asn-NHMec or Z-Phe-Arg-NHMec in the presence or absence of E64 (trans-epoxysuccinyl-L-leucylamido-(4-guanidino)butane). […] (b) Fractions as above were incubated with 10 µg TTCF in the presence or absence of E64 for 4 hours at 37°C prior to SDS-PAGE analysis. (c) Each fraction was analysed by SDS-PAGE and Western blotting. Electrophoretically transferred material was probed with an affinity purified antiserum raised against the peptide KGIGSGKVLKSGPQC from human legumain^1. • Figure 3: Peptide inhibitors of AEP block asparaginyl endopeptidase activity and TTCF processing in vitro and in vivo. (a) TTCF was digested with purified AEP (legumain from pig kidney) in the presence or absence of 0.2 mg/ml of the peptides indicated. […] (b) Purified AEP or a crude lysosomal protease mixture were incubated with Z-Ala-Ala-Asn-NHMec, Z-Phe-Arg-NHMec (cathepsins L&B) or Z-Val-Val-Ala NHMec (cathepsin S) in the presence of increasing concentrations of AENK or AEQK. Release of 7-amino-4-methyl coumarin was measured after 10, 20 or 30 minutes. […] At different times the cells were washed, fixed in 0.05 % glutaraldehyde and co-cultured with autologous TTCF specific T cell clones. […] Proteins obtained from commercial sources, as described in the literature or custom peptides were digested with purified pig kidney legumain at pH 5.5 in the presence of 1 mM DTT. […] When present peptide was maintained during antigen pulsing at 1 mg/ml (a) or 2 mg/ml (b). At different times the cells were washed, fixed in 0.05 % glutaraldehyde and antigen presentation measured using proliferation of different autologous TTCF-specific T cell clones. c, AEP pre-processing of TTCF speeds antigen presentation. […] Presentation was measured after 60 minutes of antigen pulsing using EBV B cells.
[…]. […] Nor could we reproduce the lysosomal TTCF digestion pattern or indeed generate any of these fragments using purified cathepsins L, S, B, D or E , all of which have been implicated in the class II MHC antigen processing pathway (reviewed in refs 5 & 6).
TTCF processing activity. Lysosomal fractions from the human B cell line EDR were prepared on 27 % Percoll density gradients as previously described^8 using ^125I-labelled transferrin (internalised for 30 minutes at 37°C) and β-hexosaminidase to identify endosomal/plasma membrane and lysosomal fractions respectively. The peak of lysosomes was collected by centrifugation at 40,000 g for 1 hour, removed from the underlying Percoll pellet, collected again at 50,000 g for 1 hour and stored frozen. […]

[2] = biological target: T2, asparaginyl endopeptidase activity (Homo sapiens, UniProt Q99538); assay: Cleavage of Z-Ala-Ala-Asn-NHMec by Mono-S fractions of B cell lysosome extract; assay type: biochemical; conditions: presence or absence of E64
T2 construct: We next partially purified the TTCF processing activity from a crude B cell lysosome fraction; endogenous in cells; host or cells: human B cell line EDR; membrane pellet solubilised in citrate/CHAPS, Mono-S cation-exchange fractions
T2 sequence (Q99538 26-323 limits assumed): T1 sequence (Q99538 26-323 limits assumed)
Method: (§1) The invention will now be described by reference to the following Examples and Figures wherein • Figure 1: Processing of TTCF by a leupeptin-insensitive cysteine endopeptidase activity. (a) TTCF was digested in vitro in the presence of disrupted lysosomes (1-2 µg) in the presence or absence of iodoacetamide (1 mM), leupeptin, E64 or pepstatin (each at 0.1 mg/ml). Digestions were in 0.1 M NH4 acetate at pH 4.5 or Na2HPO4, pH 6.0 or 7.0. After 4 hours at 37°C, the reactions were separated by Tris-tricine SDS-PAGE and stained with Coomassie Blue. (b) Cleavage sites: TTCF digestion products were separated by SDS PAGE and electrophoretically transferred to nitrocellulose membrane. Individual fragments numbered 1-6 were subjected to 5 cycles of Edman degradation. N-terminal sequence obtained is shown in bold following upstream residues from TTCF (tetanus toxin numbering). […] (c) Each fraction was analysed by SDS-PAGE and Western blotting. […] Release of 7-amino-4-methyl coumarin was measured after 10, 20 or 30 minutes. […] At different times the cells were washed, fixed in 0.05 % glutaraldehyde and antigen presentation measured using proliferation of different autologous TTCF-specific T cell clones. c, AEP pre-processing of TTCF speeds antigen presentation. […] Presentation was measured after 60 minutes of antigen pulsing using EBV B cells. […]

TTCF processing activity = biological target: T3, TTCF processing activity (Homo sapiens, UniProt Q99538); assay: TTCF processing by Mono-S fractions of B cell lysosome extract; assay type: biochemical; conditions: 10 µg TTCF, 4 hours at 37°C, Fig 2b
T3 construct: We next partially purified the TTCF processing activity from a crude B cell lysosome fraction; endogenous in cells; host or cells: human B cell line EDR; membrane pellet solubilised in citrate/CHAPS, Mono-S cation-exchange fractions
T3 sequence (Q99538 26-323 limits assumed): T1 sequence (Q99538 26-323 limits assumed)
Method: as §1

cathepsin L and/or B = assay: Cleavage of Z-Phe-Arg-NHMec by Mono-S fractions of B cell lysosome extract; assay type: biochemical, human; conditions: presence or absence of E64, Fig 2a
Method: as §1

[3] = B cell lysosomal fractions (crude lysosomal protease mixture); conditions: human, up to 30 minutes
[4] = crude lysosomal protease mixture (B cell lysosomal fractions); conditions: human, up to 30 minutes

Compound: CC(C)C[C@H](NC(=O)[C@H]1O[C@@H]1C(=O)O)C(=O)NCCCCNC(=N)N [E64, trans-epoxysuccinyl-L-leucylamido-(4-guanidino)butane]
inhibition of lysosomal digestion of TTCF [1]: could not inhibit
effect on cleavage of Z-Ala-Ala-Asn-NHMec [2]: no inhibitory effect; also recorded: unaffected
effect on TTCF processing activity (TTCF processing activity): unaffected
inhibition of activity cleaving Z-Phe-Arg-NHMec (cathepsin L and/or B): completely inhibited

Compound: CC(C)C[C@H](NC(=O)N1CCOCC1)C(=O)N[C@H](/C=C/S(=O)(=O)c1ccccc1)CCc1ccccc1 [LHVS]
effect on lysosomal TTCF digestion activity ([1]; concentration not given, data not shown): without effect

cleaved bond [3]: Arg-NHMec
cleaved bond [4]: Arg-NHMec
Compound: Z-Phe-Arg-NHMec

Compound: CC(=O)N[C@@H](CC(C)C)C(=O)N[C@@H](CC(C)C)C(=O)N[C@H](C=O)CCCNC(=N)N [leupeptin, acetyl-leucyl-leucyl-arginal]
inhibition of lysosomal digestion of TTCF [1]: could not inhibit; also recorded: completely resistant
